# Source: patent US8835629B2, “Anti-cancer agents” (The Walter and Eliza Hall Institute of Medical Research, priority 2010, dated 2014)
# “Also recorded” adds a separate entry of the source.
# Tests used:
# SW480 = assay: Antimitotic effects (G2/M cell cycle block, DNA staining, ModFit) on SW480; format: cell-based, human
# Text: (§1) For the initial studies two colon carcinoma cell lines (LIM1215 and SW480) and two breast cancer cell lines (MDA-MB-231 and MCF-7) were used. Taxol was used as comparator in these experiments (Table 1).
# MDA-MB-231 = assay: Antimitotic effects (G2/M cell cycle block, DNA staining, ModFit) on MDA-MB-231; format: cell-based, human
# Text: as §1
# BaF/3 = assay: MTT cell proliferation assay, BaF/3; format: cell-based; details: Mus musculus, BaF3, 72 h; BaF/3 murine B-cell progenitor line; MTT after 3 days of incubation; read-out: IC50, inhibition of proliferation
# Method: (§2) Compound 2 was tested on a series of cell lines to determine its activity and selectivity (Table 2). Cell proliferation was measured using the MTT assay (for protocol see Example 2.6) after 3 days of incubation with the inhibitor.
# (§3) • Cells plated at […] in 100 μl medium+5% FCS (+Adds^1): • Cells incubated overnight: • Titrate inhibitors in a fresh plate in 150 μl medium • Transfer 100 μl titrated compounds to matching wells of the cell plate. • Incubate a further 4 days: • Add 10 μl MTS^2 or MTT^3 for 1.5 to 2 hours and read on Multiscanner (wavelengths 492/690) ^1 Additives for culture of LIM cell lines: 10 μM thioglycerol, 0.025 U/ml insulin, 1 μg/ml hydrocortisone. ^2 3-(4,5-dimethylthiazol-2-yl)-5-(3-carboxymethoxyphenyl)-2-(4-sulfophenyl)-2H-tetrazolium. ^3 3-(4,5-Dimethylthiazol-2-yl)-2,5-diphenyltetrazolium bromide
# (§4) Cells are trypsinized and washed ×2 in medium+5% FCS and plate out at 10^4 cells per well in 100 μl.
# (§5) Incubate plates o/n 37° C.+5%-10% CO2 incubator.
# (§6) Inhibitors are dissolved in DMSO to make 10 mM stocks and titrated in a 96 well plate in duplicate to use as the stock for the test plate. […]
# (§7) Read OD of plates on Thermo Multiskan Ex, at 560/690 nm.
# LIM 1215 = assay: MTT cell proliferation assay, LIM 1215; format: cell-based; details: LIM1215, 72 h; LIM 1215 human colorectal carcinoma; MTT after 3 days of incubation; read-out: IC50, inhibition of proliferation
# Method: as §2, §3, §4, §5, §6, §7
# LIM 2537 = assay: MTT cell proliferation assay, LIM 2537; format: cell-based; details: 72 h; LIM 2537 human colorectal carcinoma; MTT after 3 days of incubation; read-out: IC50, inhibition of proliferation
# Method: as §2, §3, §4, §5, §6, §7
# LIM 2405 = assay: MTT cell proliferation assay, LIM 2405; format: cell-based; details: 72 h; LIM 2405 human colorectal carcinoma; MTT after 3 days of incubation; read-out: IC50, inhibition of proliferation
# Method: as §2, §3, §4, §5, §6, §7
# SW 480 = assay: MTT cell proliferation assay, SW 480; format: cell-based; details: SW480, 72 h; SW 480 human colorectal carcinoma; MTT after 3 days of incubation; read-out: IC50, inhibition of proliferation
# Method: as §2, §3, §4, §5, §6, §7
# BaF/3 cells = assay: Anti-mitotic effects of metabolites recovered from mouse plasma (G2/M, FACS); format: cell-based, murine; details: BaF3, 24 hr, FACS with Propidium Iodide, concentration of recovered peaks difficult to quantify, read-out: IC50 (G2/M block) of peaks recovered from mouse plasma
# Method: FIG. 5: Anti-mitotic effects of metabolites recovered from mouse plasma after compound 2 injection. BaF/3 cells were incubated for 24 hr with increasing amounts of each reconstituted peak. Cell cycle distribution was assessed by FACS analysis using Propidium Iodide. The percentage of cells in the G2/M phase of the cell cycle was determined using ModFi
# The mouse plasma was fractionated on RP-HPLC and the peaks indicated above were collected. The pooled peak samples were concentrated by lyophilization. A portion of each peak sample was reconstituted in culture media for bioassay (FIG. 5). The remainder was analyzed by LC-MS to confirm the mass and identify the structures.
# [1] = test system: LIM 2537 (colon carcinoma cell line) tumors; assay: Tumor xenograft study with LIM 2537 cells; format: in vivo, BALB/c nude mice; details: 15 mg/kg SC
# Method: FIG. 7: LIM2537 tumor growth in nude mice. Tumor diameters were measured with external calipers every three days and tumor volume calculated with the formula: π/6×(L×W^2).
# The mice were inoculated with 3×10^6 cells per tumor in 100 μl PBS, one tumor on each flank subcutaneously (SC). Treatments were started on the third day after inoculation with either vehicle control (VC) or 100 μl of drug at 3 mg/ml in aqueous solution giving a dose of 15 mg/kg. Mice were injected SC in the abdomen, three times per week for the duration of the experiment. The mice were monitored for body weight, tumor volume and appearance, and for any adverse reactions to the drug. The experiment was terminated after 33 days and the control group euthanized, as the tumor burden in that group had reached the maximum allowed. The remaining mice were then left without treatment for a further 9 days to monitor resumption of tumor growth.
# [2] = Homo sapiens, inhibitors added to cells in log-growth for 24 hrs, read-out: IC50 for progression through the cell cycle
smiles,measurement,setting,value
"COc1ccc(CNc2nc(NCc3ccc(CN)cc3)nc(NN3CC(=O)NC3=O)n2)cc1 (single isomer, unassigned) [Compound 2, 1-[4-(4-aminomethyl-benzylamino)-6-(4-methoxybenzylamino)-{1,3,5}-triazin-2-yl-amino]-imidazolidine-2,4-dione]",% of Taxol (proportion of cells in G2M test/proportion of cells in G2M Taxol),"SW480; 24 hrs, standard 1 μM Taxol",113%
same,IC50,SW480; [2],250 nM
same,% of Taxol (proportion of cells in G2M test/proportion of cells in G2M Taxol),"MDA-MB-231; 24 hrs, standard 1 μM Taxol",103%
same,IC50,MDA-MB-231; [2],9 nM
same,IC50,BaF/3,30 nM
same,IC50,LIM 1215,90 nM
same,IC50,LIM 2537,70 nM
same,IC50,LIM 2405,30 nM
same,IC50,SW 480,30 nM
same,IC50,BaF/3 cells,100 nM
same,Tumor growth (tumor volume),"[1]; 3 injections per week from day 3, 33 days",significantly reduced the rate of growth of the tumors; also recorded: successful in slowing the growth of LIM 2537 cells
same,Mouse body weights,[1]; three times per week,not affected
same,Adverse reaction to the drug,"[1]; three times per week, aqueous formulation",no long term adverse reaction
